# Experiments:
# [1] = target: Rho-associated protein kinase 2 (Homo sapiens) (UniProt O75116); experiment: Inhibition of wild-type human partial length ROCK2 (M1 to T431 residues) expressed in mammalian expression system assessed as residual activity at 1 uM by Kinomescan method relative to control
# [2] = target: Myosin light chain kinase, smooth muscle (Homo sapiens) (UniProt Q15746); experiment: Inhibition of wild-type human full length MYLK (M854 to E1845 residues) expressed in mammalian expression system assessed as residual activity at 1 uM by Kinomescan method relative to control
# [3] = target: Myosin-IIIb (Homo sapiens) (UniProt Q8WXR4); experiment: Inhibition of wild-type human partial length MYO3B (M1 to D357 residues) expressed in bacterial expression system assessed as residual activity at 1 uM by Kinomescan method relative to control
# [4] = target: RAC-gamma serine/threonine-protein kinase (Homo sapiens) (UniProt Q9Y243); experiment: Inhibition of wild-type human partial length AKT3 expressed in bacterial expression system assessed as residual activity at 1 uM by Kinomescan method relative to control
# [5] = target: Cyclin-dependent kinase 2 homolog (Plasmodium falciparum (isolate 3D7)) (UniProt P61075); experiment: Inhibition of wild-type Plasmodium falciparum isolate 3D7 full length PK5 (M1 to N288 residues) expressed in mammalian expression system assessed as residual activity at 1 uM by Kinomescan method relative to control
# [6] = test system: Mast/stem cell growth factor receptor Kit (Homo sapiens), P10721 [L576P]; experiment: Inhibition of human partial length KIT L576P mutant (Y545 to D952 residues) expressed in bacterial expression system assessed as residual activity at 1 uM by Kinomescan method relative to control
# [7] = target: Serine/threonine-protein kinase Sgk2 (Homo sapiens) (UniProt Q9HBY8); experiment: Inhibition of wild-type human partial length SGK2 (L54 to C427 residues) expressed in mammalian expression system assessed as residual activity at 1 uM by Kinomescan method relative to control
# [8] = target: Serine/threonine-protein kinase PLK4 (Homo sapiens) (UniProt O00444); experiment: Inhibition of wild-type human partial length PLK4 (M1 to S273 residues) expressed in mammalian expression system assessed as residual activity at 1 uM by Kinomescan method relative to control
# [9] = target: Leukocyte tyrosine kinase receptor (Homo sapiens) (UniProt P29376); experiment: Inhibition of wild-type human partial length LTK (P422 to S744 residues) expressed in bacterial expression system assessed as residual activity at 1 uM by Kinomescan method relative to control
# [10] = target: Mitogen-activated protein kinase kinase kinase 10 (Homo sapiens) (UniProt Q02779); experiment: Inhibition of wild-type human partial length MLK2 (V52 to W380 residues) expressed in bacterial expression system assessed as residual activity at 1 uM by Kinomescan method relative to control
# [11] = target: Serine/threonine-protein kinase SBK1 (Homo sapiens) (UniProt Q52WX2); experiment: Inhibition of wild-type human partial length SBK1 (P23 to P348 residues) expressed in mammalian expression system assessed as residual activity at 1 uM by Kinomescan method relative to control
# [12] = test system: Phosphatidylinositol 4,5-bisphosphate 3-kinase catalytic subunit alpha isoform (Homo sapiens), P42336 [E545K]; experiment: Inhibition of human partial length PIK3CA E545K mutant (R108 to N1068 residues) expressed in mammalian expression system assessed as residual activity at 1 uM by Kinomescan method relative to control
# [13] = target: Tyrosine-protein kinase SYK (Homo sapiens) (UniProt P43405); experiment: Inhibition of wild-type human partial length SYK (D354 to N635 residues) expressed in bacterial expression system assessed as residual activity at 1 uM by Kinomescan method relative to control
# [14] = target: Serine/threonine-protein kinase PLK1 (Homo sapiens) (UniProt P53350); experiment: Inhibition of wild-type human partial length PLK1 (A33 to F325 residues) expressed in mammalian expression system assessed as residual activity at 1 uM by Kinomescan method relative to control
# [15] = target: Calcium/calmodulin-dependent protein kinase type 1B (Homo sapiens) (UniProt Q6P2M8); experiment: Inhibition of wild-type human partial length CAMK1B (W9 to A311 residues) expressed in mammalian expression system assessed as residual activity at 1 uM by Kinomescan method relative to control
# [16] = target: Serine/threonine-protein kinase SIK1 (Homo sapiens) (UniProt P57059); experiment: Inhibition of wild-type human partial length SIK (M1 to Y304 residues) expressed in bacterial expression system assessed as residual activity at 1 uM by Kinomescan method relative to control
# [17] = target: Serine/threonine-protein kinase Nek7 (Homo sapiens) (UniProt Q8TDX7); experiment: Inhibition of wild-type human full length NEK7 (M1 to S302 residues) expressed in bacterial expression system assessed as residual activity at 1 uM by Kinomescan method relative to control
# [18] = target: Proto-oncogene tyrosine-protein kinase ROS (Homo sapiens) (UniProt P08922); experiment: Inhibition of wild-type human partial length ROS1 (A1921 to N2240 residues) expressed in bacterial expression system assessed as residual activity at 1 uM by Kinomescan method relative to control
# [19] = target: Fibroblast growth factor receptor 3 (Homo sapiens) (UniProt P22607); experiment: Inhibition of wild-type human partial length FGFR3 (R442 to S771 residues) expressed in bacterial expression system assessed as residual activity at 1 uM by Kinomescan method relative to control
# U2932 = experiment: Growth inhibition of human U2932 cells; format: functional; conditions: Homo sapiens, U2932
# [20] = target: Cyclin-dependent kinase 13 (Homo sapiens) (UniProt Q14004); experiment: Inhibition of wild-type human partial length CDC2L5 (H675 to S1054 residues) expressed in mammalian expression system assessed as residual activity at 1 uM by Kinomescan method relative to control
# [21] = target: Serine/threonine-protein kinase RIO1 (Homo sapiens) (UniProt Q9BRS2); experiment: Inhibition of wild-type human full length RIOK1 (M1 to K568 residues) expressed in bacterial expression system assessed as residual activity at 1 uM by Kinomescan method relative to control
# [22] = target: Aurora kinase A (Homo sapiens) (UniProt O14965); experiment: Inhibition of wild-type human partial length AURKA (E122 to K401 residues) expressed in mammalian expression system assessed as residual activity at 1 uM by Kinomescan method relative to control
# [23] = target: Dual serine/threonine and tyrosine protein kinase (Homo sapiens) (UniProt Q6XUX3); experiment: Inhibition of wild-type human full length RIPK5 (M1 to T929 residues) expressed in mammalian expression system assessed as residual activity at 1 uM by Kinomescan method relative to control
# Pfeiffer = experiment: Induction of apoptosis in human Pfeiffer cells assessed as induction of PARP cleavage after 48 hrs by immunoblot; format: functional, cell-based
# [24] = Growth inhibition of human M07e cells; format: functional; conditions: Homo sapiens, M-07e
# [25] = target: Calcium/calmodulin-dependent protein kinase kinase 2 (Homo sapiens) (UniProt Q96RR4); experiment: Inhibition of wild-type human partial length CAMKK2 (D65 to V471 residues) expressed in bacterial expression system assessed as residual activity at 1 uM by Kinomescan method relative to control
# Sequence of Calcium/calmodulin-dependent protein kinase kinase 2 (Homo sapiens) (Q96RR4 2-588 limits assumed): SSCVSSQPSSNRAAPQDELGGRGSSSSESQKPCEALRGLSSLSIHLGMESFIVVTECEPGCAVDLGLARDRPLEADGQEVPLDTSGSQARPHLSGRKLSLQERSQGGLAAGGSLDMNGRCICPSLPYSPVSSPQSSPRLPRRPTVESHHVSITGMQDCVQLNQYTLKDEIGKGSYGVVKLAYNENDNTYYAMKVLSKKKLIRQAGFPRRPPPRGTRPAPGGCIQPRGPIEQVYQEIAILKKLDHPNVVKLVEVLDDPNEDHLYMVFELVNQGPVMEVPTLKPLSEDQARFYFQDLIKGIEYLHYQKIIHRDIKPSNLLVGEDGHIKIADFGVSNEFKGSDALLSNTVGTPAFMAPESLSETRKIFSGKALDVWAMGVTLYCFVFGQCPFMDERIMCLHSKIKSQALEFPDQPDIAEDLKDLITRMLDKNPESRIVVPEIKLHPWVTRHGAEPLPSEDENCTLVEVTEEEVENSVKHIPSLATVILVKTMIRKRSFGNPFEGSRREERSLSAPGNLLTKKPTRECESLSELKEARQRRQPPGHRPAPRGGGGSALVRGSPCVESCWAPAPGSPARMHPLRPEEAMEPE
# Sequence of Fibroblast growth factor receptor 3 (Homo sapiens) (P22607 23-806 limits assumed): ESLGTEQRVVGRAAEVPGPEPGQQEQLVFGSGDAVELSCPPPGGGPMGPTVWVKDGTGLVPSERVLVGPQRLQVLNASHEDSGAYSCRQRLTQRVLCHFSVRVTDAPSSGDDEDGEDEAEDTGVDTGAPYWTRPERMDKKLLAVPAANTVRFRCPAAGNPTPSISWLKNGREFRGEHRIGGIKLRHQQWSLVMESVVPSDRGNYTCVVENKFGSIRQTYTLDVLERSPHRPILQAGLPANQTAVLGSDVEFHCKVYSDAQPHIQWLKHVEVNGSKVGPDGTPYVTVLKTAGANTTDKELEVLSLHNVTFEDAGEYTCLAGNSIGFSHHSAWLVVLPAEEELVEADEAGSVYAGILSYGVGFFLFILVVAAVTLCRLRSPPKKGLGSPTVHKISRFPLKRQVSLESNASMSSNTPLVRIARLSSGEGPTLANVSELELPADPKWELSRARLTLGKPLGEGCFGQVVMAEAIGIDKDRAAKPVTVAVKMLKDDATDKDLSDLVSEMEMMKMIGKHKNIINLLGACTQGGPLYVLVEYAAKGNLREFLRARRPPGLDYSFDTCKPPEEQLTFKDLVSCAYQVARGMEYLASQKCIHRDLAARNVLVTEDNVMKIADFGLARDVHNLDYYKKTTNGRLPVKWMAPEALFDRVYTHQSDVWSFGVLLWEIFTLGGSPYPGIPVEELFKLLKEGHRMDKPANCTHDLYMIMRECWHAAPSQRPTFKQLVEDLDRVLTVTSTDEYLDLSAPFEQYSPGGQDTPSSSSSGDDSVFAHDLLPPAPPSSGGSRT
# Sequence of Phosphatidylinositol 4,5-bisphosphate 3-kinase catalytic subunit alpha isoform (Homo sapiens), P42336 [E545K] (P42336 whole entry E545K, the tested form may be a part, canonical isoform): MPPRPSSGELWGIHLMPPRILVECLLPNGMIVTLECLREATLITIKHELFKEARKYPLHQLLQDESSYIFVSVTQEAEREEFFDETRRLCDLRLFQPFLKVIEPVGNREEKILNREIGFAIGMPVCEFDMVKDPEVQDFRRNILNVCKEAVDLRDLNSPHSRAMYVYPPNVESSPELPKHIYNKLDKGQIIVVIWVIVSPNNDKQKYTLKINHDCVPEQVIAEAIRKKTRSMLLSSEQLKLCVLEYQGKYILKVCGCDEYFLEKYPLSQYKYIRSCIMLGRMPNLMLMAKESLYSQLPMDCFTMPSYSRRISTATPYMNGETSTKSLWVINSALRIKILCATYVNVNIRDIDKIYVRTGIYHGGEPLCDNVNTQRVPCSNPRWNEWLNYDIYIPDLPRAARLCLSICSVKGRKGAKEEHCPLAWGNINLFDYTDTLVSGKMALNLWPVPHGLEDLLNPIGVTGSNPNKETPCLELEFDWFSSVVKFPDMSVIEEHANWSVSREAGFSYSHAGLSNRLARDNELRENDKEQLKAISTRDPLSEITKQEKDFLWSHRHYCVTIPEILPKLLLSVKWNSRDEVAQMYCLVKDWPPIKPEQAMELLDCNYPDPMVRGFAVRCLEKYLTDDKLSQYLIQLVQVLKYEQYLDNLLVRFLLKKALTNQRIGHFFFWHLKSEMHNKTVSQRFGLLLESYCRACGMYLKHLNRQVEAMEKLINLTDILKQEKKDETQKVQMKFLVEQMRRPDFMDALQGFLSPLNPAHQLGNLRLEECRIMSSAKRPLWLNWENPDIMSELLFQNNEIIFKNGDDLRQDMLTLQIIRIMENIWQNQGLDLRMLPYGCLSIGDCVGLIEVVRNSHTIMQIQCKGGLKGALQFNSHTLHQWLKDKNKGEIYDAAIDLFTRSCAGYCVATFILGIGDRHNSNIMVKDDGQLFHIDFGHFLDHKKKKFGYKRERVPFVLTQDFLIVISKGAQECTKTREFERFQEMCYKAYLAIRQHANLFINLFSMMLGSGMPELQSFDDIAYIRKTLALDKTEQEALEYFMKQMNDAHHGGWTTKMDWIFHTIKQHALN
# Sequence of RAC-gamma serine/threonine-protein kinase (Homo sapiens) (Q9Y243 whole entry, the tested form may be a part): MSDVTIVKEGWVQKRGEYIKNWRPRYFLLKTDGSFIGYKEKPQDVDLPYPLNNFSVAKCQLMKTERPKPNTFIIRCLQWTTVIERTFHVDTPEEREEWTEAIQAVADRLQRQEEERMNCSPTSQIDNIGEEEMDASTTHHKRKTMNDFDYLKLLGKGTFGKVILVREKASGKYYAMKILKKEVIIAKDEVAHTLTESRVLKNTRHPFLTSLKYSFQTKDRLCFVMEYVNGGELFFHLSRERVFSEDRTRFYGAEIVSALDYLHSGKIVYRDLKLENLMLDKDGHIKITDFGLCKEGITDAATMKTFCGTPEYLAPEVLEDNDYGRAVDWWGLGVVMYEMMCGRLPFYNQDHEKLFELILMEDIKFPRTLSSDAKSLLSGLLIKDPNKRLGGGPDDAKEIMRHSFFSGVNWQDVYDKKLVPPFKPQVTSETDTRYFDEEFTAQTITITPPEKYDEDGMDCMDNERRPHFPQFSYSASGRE
# Sequence of Cyclin-dependent kinase 2 homolog (Plasmodium falciparum (isolate 3D7)) (P61075 whole entry, the tested form may be a part): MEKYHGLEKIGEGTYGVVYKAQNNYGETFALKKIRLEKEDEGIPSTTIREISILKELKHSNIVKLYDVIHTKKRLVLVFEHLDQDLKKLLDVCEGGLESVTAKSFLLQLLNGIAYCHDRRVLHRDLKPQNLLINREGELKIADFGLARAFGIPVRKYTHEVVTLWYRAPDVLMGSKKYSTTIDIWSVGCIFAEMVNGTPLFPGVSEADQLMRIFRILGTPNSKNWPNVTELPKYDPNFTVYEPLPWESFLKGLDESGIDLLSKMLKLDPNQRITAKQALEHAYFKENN
# Sequence of Cyclin-dependent kinase 13 (Homo sapiens) (Q14004 whole entry, looked up, the tested form may be a part): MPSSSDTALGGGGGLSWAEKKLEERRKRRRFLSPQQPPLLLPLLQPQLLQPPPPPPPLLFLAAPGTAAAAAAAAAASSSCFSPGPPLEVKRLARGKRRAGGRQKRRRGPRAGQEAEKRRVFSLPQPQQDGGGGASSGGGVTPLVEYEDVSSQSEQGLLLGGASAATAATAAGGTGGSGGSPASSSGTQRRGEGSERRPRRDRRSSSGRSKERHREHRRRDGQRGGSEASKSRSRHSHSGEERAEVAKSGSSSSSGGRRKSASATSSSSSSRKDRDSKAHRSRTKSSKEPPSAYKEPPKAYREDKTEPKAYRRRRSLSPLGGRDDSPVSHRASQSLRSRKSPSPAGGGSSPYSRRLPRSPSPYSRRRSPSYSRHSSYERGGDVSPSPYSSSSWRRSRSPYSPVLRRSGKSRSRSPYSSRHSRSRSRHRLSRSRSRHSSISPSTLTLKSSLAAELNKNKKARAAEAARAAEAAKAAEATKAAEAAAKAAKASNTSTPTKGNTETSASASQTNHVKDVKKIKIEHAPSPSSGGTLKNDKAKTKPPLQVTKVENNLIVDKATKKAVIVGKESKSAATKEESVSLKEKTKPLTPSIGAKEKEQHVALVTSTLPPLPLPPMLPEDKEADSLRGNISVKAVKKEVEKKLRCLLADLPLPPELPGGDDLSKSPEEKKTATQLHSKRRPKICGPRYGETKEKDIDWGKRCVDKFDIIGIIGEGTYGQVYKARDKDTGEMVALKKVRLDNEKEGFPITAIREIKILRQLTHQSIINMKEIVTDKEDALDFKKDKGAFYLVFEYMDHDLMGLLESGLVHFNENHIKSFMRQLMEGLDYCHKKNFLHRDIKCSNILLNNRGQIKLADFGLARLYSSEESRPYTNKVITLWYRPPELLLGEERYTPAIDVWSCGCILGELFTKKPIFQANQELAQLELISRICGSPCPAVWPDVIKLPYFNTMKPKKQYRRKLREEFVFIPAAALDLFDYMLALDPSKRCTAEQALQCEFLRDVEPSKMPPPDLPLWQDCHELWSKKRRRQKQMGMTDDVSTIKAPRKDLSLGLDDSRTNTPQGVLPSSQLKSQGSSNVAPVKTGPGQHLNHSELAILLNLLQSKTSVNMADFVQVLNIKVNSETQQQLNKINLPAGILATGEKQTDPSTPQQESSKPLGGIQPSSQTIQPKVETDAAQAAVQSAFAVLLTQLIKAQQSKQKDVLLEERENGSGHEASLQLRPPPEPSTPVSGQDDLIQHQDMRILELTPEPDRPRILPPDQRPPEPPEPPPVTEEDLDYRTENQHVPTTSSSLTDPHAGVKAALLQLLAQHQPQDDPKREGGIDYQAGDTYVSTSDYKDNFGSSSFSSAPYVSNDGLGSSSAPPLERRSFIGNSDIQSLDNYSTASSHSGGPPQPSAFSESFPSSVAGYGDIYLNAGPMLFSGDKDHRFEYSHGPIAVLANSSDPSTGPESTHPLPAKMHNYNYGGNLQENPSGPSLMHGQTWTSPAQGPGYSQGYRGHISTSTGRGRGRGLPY
# Sequence of Calcium/calmodulin-dependent protein kinase type 1B (Homo sapiens) (Q6P2M8 whole entry, the tested form may be a part): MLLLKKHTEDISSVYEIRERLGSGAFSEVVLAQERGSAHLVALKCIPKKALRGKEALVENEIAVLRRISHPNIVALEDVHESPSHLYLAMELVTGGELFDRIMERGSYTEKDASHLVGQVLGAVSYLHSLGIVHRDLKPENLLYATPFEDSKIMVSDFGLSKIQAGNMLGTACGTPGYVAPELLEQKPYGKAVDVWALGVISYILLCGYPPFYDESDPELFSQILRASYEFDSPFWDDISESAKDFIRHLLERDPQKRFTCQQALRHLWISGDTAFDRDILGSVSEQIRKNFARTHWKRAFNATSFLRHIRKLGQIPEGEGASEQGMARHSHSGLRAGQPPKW
smiles,measurement,setting,value
C=CC(=O)Nc1cc(Nc2cc(-c3cccc(NC(=O)c4ccc(C(C)(C)C)cc4)c3C)cn(C)c2=O)ccc1C(=O)N1CCOCC1,Activity,[1],92%
same,Activity,[2],100%
same,Activity,[3],86%
same,Activity,[4],95%
same,Activity,[5],88%
same,Activity,[6],97%
same,Activity,[7],93%
same,Activity,[8],99%
same,Activity,[9],81%
same,Activity,[10],100%
same,Activity,[11],100%
same,Activity,[12],100%
same,Activity,[13],92%
same,Activity,[14],100%
same,Activity,[15],85%
same,Activity,[16],93%
same,Activity,[17],95%
same,Activity,[18],100%
same,Activity,[19],89%
same,GI50,U2932,2.4 µM
same,Activity,[20],100%
same,Activity,[21],100%
same,Activity,[22],61%
same,Activity,[23],90%
same,Activity,Pfeiffer,Dose-dependent effect
same,GI50,[24],7.3 µM
same,Activity,[25],100%
